Experimental data reported in ChEMBL document CHEMBL2021834, “Novel sulfonylurea derivatives as H3 receptor antagonists. Preliminary SAR studies” (Eur J Med Chem, 2012).
pIC50: −log10 of the molar value.

target: Voltage-gated inwardly rectifying potassium channel KCNH2 (Homo sapiens, UniProt Q12809)
Sequence (Q12809 whole entry): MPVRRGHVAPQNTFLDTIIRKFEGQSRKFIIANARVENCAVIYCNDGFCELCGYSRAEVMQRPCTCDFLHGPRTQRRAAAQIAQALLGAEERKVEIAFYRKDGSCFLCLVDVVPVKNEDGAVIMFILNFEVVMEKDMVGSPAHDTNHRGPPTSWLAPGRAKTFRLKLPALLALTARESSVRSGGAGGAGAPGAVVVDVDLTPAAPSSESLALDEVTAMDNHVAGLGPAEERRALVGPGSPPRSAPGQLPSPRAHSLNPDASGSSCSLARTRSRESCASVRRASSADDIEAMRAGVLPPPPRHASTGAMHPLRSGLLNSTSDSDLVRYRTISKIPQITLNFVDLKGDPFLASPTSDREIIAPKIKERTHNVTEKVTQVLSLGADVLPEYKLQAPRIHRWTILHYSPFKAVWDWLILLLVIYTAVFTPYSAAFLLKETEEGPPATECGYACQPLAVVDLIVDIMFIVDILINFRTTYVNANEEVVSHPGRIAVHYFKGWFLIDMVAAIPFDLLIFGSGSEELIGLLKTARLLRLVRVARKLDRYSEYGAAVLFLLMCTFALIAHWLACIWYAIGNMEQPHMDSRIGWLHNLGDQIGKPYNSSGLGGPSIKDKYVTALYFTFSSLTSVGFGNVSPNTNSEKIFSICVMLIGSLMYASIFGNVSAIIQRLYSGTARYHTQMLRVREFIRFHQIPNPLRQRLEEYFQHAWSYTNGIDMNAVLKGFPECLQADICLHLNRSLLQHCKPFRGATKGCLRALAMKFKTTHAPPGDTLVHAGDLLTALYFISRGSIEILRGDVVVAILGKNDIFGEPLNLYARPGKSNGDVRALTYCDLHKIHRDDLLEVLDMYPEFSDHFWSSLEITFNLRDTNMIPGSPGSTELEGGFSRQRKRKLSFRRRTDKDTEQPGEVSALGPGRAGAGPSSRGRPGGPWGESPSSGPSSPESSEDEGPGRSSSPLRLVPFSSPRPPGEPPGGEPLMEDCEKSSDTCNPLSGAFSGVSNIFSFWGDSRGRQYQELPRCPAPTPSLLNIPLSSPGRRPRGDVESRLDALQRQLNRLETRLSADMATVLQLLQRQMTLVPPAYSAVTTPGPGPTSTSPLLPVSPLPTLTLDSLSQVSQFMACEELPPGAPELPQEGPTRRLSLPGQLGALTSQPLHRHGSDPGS
Description: Displacement of [3H] dofetilide from human ERG channel expressed in HEK293 cells after 45 mins by scintillation counting method

Compound	pIC50
O=C(Nc1ccccc1C(F)(F)F)NS(=O)(=O)c1ccc(OCCCN2CCCCC2)cc1	< 4.00
CCOC(=O)C1CCN(CCCCOc2ccc(S(=O)(=O)NC(=O)Nc3ccccc3)cc2)CC1	< 4.00
O=C(Nc1ccccc1)NS(=O)(=O)c1ccc(OCCCN2CCCCC2)cc1	< 4.00
CCOC(=O)C1CCN(CCCOc2ccc(S(N)(=O)=O)cc2)CC1	4.12
O=C(Nc1ccc(C(F)(F)F)cc1)NS(=O)(=O)c1ccc(OCCCCN2CCCC2)cc1	4.31
CC(C)NC(=O)NS(=O)(=O)c1ccc(OCCN2CCCC2)cc1	< 4.00
Cc1ccc(NC(=O)NS(=O)(=O)c2ccc(OCCCN3CCCCC3)cc2)cc1	< 4.00
COc1ccc(NC(=O)NS(=O)(=O)c2ccc(OCCCN3CCCCC3)cc2)cc1	< 4.00
CCOC(=O)C1CCN(CCOc2ccc(S(=O)(=O)NC(=O)Nc3ccccc3)cc2)CC1	< 4.00
O=C(Nc1cccc2ccccc12)NS(=O)(=O)c1ccc(OCCCN2CCCC2)cc1	< 4.00
O=C(Nc1cc(Cl)ccc1Cl)NS(=O)(=O)c1ccc(OCCCCN2CCCCC2)cc1	< 4.00
O=C(Nc1ccc(C(F)(F)F)cc1)NS(=O)(=O)c1ccc(OCCN2CCCCC2)cc1	< 4.00
CCOC(=O)C1CCN(CCCCOc2ccc(S(N)(=O)=O)cc2)CC1	4.73
O=C(Nc1ccc(C(F)(F)F)cc1)NS(=O)(=O)c1ccc(OCCN2CCCC2)cc1	< 4.00
